Reference: US10214518B2, “Pyrazolyl substituted carbonic acid derivatives as modulators of the prostacyclin (PGI2) receptor useful for the treatment of disorders related thereto” (Arena Pharmaceuticals, Inc., priority 2008, dated 2019)

Legend:
[1] = tested on: MCT-induced pulmonary arterial hypertension in rat; test: Rat monocrotaline (MCT) model of pulmonary arterial hypertension; format: in vivo; conditions: 30 mg/kg oral gavage twice a day for 21 days; 60 mg/kg MCT s.c.; male Wistar rats; Day 22
Protocol: Example 4: Rat Model of Pulmonary Arterial Hypertension
Male Wistar rats (100-150 g at start of study) (Charles River Laboratories, Wilmington, Mass.) were housed two per cage and maintained in a humidity—(40-60%) and temperature—(68-72° F.) controlled facility on a 12 hr:12 hr light/dark cycle (lights on at 6:30 am) with free access to food (Harlan Teklad, Orange Calif., Rodent Diet 8604) and water. Rats were allowed one week of habituation to the animal facility before testing.
The rat monocrotaline (MCT) model is a standard and well-accepted model of pulmonary arterial hypertension. MCT induces acute pulmonary endothelial damage associated with pulmonary vascular inflammation. […]
Rats were randomly given a single subcutaneous injection of either 60 mg/kg MCT (Sigma, St. Louis, Mo.) or 0.9% saline (sham) and assigned to receive oral administration of 20% hydroxypropyl beta-cyclodextrin (vehicle) or test compound (30 mg/kg; FIGS. 1 and 2). […] Heart chamber weights were measured on Day 22. […] The ratio of right ventricular (RV) weight to left ventricle plus septum (LV+S) weight (this ratio is indicated as “RV/(LV+S)” in FIGS. 1 and 2) was calculated as an index of the hypertrophic response to the induced pulmonary arterial hypertension and, as such, as an index of a test compound's therapeutic efficacy for pulmonary arterial hypertension.

[2] = molecular target: human prostacyclin (PGI2) receptor (Homo sapiens (Human), UniProt P43119); test: HTRF assay for direct cAMP measurement; format: cell-based; conditions: recombinant CHO-K1 cells stably transfected with human prostacyclin receptor; cAMP increase
Source text: Example 2: Homogeneous Time-Resolved Fluorescence (HTRF®) Assay for Direct cAMP Measurement
Compounds were screened for agonists of the human prostacyclin (PGI2) receptor using the HTRF® assay for direct cAMP measurement (Gabriel et al., ASSAY and Drug Development Technologies, 1:291-303, 2003) and recombinant CHO-K1 cells stably transfected with human prostacyclin receptor. CHO-K1 cells were obtained from ATCC® (Manassas, Va.; Catalog # CCL-61). An agonist of the prostacyclin receptor was detected in HTRF® assay for direct cAMP measurement as a compound which increased cAMP concentration. HTRF® assay also was used to determine EC50 values for prostacyclin receptor agonists.
The HTRF® assay kit was purchased from Cisbio-US, Inc. (Bedford, Mass.; Catalog #62AM4PEC). The HTRF® assay supported by the kit is a competitive immunoassay between endogenous cAMP produced by the CHO-K1 cells and tracer cAMP labeled with the dye d2. The tracer binding is visualized by a monoclonal anti-cAMP antibody labeled with Cryptate. The specific signal (i.e., fluorescence resonance energy transfer, FRET) is inversely proportional to the concentration of unlabeled cAMP in the standard or sample.
The fluorescence ratio (665 nm/620 nm) of the standards (0.17 to 712 nM cAMP) included in the assay was calculated and used to generate a cAMP standard curve according to the kit manufacturer's instructions. The fluorescence ratio of the samples (test compound or compound buffer) was calculated and used to deduce respective cAMP concentrations by reference to the cAMP standard curve.
The HTRF® assay was carried out using a two-step protocol essentially according to the kit manufacturer's instructions, in 20 μL total volume per well in 384-well plate format (ProxiPlates; PerkinElmer, Fremont, Calif.; catalog #6008280). To each of the experimental wells was transferred 3000 recombinant CHO-K1 cells in 5 μL assay buffer (phosphate buffered saline containing calcium chloride and magnesium chloride (Invitrogen, Carlsbad, Calif.; catalog #14040) supplemented with IBMX (100 μM) and rolipram (10 μM) (phosphodiesterase inhibitors; Sigma-Aldrich, St. Louis, Mo.; catalog #15879 and catalog #R6520, respectively) and 0.1% bovine serum albumin (BSA) fraction V (Sigma-Aldrich; catalog # A3059)), followed by test compound in 5 μL assay buffer or 5 μL assay buffer. The plate was then incubated at room temperature for 1 h. […] The plate was then further incubated at room temperature for 1 h, after which the assay plate was read.
The HTRF® readout was accomplished using a PHERAstar (BMG LABTECH Inc., Durham, N.C.) or EnVision™ (PerkinElmer, Fremont Calif.) microplate reader.

[3] = tested on: human platelet-rich plasma (PRP); test: Human platelet aggregation inhibition test (ADP-induced, PRP); format: cell-based; conditions: inhibition of aggregation induced by 1x10^-5 M ADP in human PRP
Protocol: Example 3: Human Platelet Aggregation Inhibition Test
Blood collected from healthy human volunteers in aqueous trisodium citrate solution was centrifuged at 150 g for 15 min and the upper layer was recovered to obtain platelet-rich plasma (PRP). The residual blood was centrifuged at 3000 g for 10 min and the supernatant was collected as platelet-poor plasma (PPP). Platelet concentration in the PRP was determined using the Z series Beckman Coulter particle counter (Beckman, Fullerton, Calif.) and adjusted to 250,000 platelets/μL using PPP. 480 μL of PRP was pre-incubated at 37° C. and stirred at 1200 rpm with 10 μL aqueous test compound solution for 1 min prior to induction of aggregation by the addition of 10 μL of aqueous adenosine diphosphate (ADP) solution to adjust the final ADP concentration in the PRP to 1×10^−5 M. The maximal amplitude of aggregation response within 3 min was determined and measured in triplicate using the Chronolog model 490 aggregometer (Chrono-log Corp., Havertown, Pa.). Percent inhibition of aggregation was calculated from the maximum decrease in optical density of the control (addition of water in place of the test compound solution) sample and of the samples containing test compound. The test compound was added to adjust the final concentration to the range 10^−9 to 10^−4 M, and IC50 values were determined by inhibition percentage of aggregation at each concentration.

Sequence of human prostacyclin (PGI2) receptor (P43119 whole entry): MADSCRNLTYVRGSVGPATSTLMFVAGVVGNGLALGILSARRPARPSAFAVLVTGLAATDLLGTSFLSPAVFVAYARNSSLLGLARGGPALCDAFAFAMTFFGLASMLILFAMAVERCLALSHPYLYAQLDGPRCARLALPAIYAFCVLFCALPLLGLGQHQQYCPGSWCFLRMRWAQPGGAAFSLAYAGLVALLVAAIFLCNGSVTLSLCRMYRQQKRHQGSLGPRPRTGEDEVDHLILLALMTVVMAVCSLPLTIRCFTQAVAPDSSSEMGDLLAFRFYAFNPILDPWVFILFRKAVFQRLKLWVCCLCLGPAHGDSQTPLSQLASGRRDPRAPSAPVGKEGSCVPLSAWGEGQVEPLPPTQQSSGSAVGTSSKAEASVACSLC

Compound	right ventricle hypertrophic response, RV/(LV+S) [1]	EC50 [2] [nM]	IC50 [3] [nM]
COc1cccc(-c2c(-c3ccccc3)nn(C[C@H]3CC[C@@H](COCC(=O)O)CC3)c2SC)c1 [Compound 31, 2-(((1s,4s)-4-((4-(3-Methoxyphenyl)-5-(methylthio)-3-phenyl-1H-pyrazol-1-yl)methyl)cyclohexyl)methoxy)acetic Acid]	inhibited the hypertrophic response	–	–
N#CCSc1c(-c2ccccc2)c(-c2ccccc2)nn1C[C@H]1CC[C@@H](COCC(=O)O)CC1 [Compound 184, 2-(((1s,4s)-4-((5-(Cyanomethylthio)-3,4-diphenyl-1H-pyrazol-1-yl)methyl)cyclohexyl)methoxy)acetic Acid]	–	11	20
COc1cccc(-c2c(-c3ccccc3)nn(C[C@H]3CC[C@@H](COCC(=O)O)CC3)c2C)c1 [Compound 14, 2-(((1s,4s)-4-((4-(3-Methoxyphenyl)-5-methyl-3-phenyl-1H-pyrazol-1-yl)methyl)cyclohexyl)methoxy)acetic Acid]	inhibited the hypertrophic response	–	–
COc1cccc(-c2c(-c3ccccc3)nn(C[C@H]3CC[C@@H](COCC(=O)O)CC3)c2SCCO)c1 [Compound 198, 2-(((1s,4s)-4-((5-(2-Hydroxyethylthio)-4-(3-methoxyphenyl)-3-phenyl-1H-pyrazol-1-yl)methyl)cyclohexyl)methoxy)acetic Acid]	–	2	–
CCSc1c(-c2cccc(OC)c2F)c(-c2ccccc2)nn1C[C@H]1CC[C@@H](COCC(=O)O)CC1 [Compound 90, 2-(((1s,4s)-4-((5-(Ethylthio)-4-(2-fluoro-3-methoxyphenyl)-3-phenyl-1H-pyrazol-1-yl)methyl)cyclohexyl)methoxy)acetic Acid]	–	7	–
O=C(O)COC[C@H]1CC[C@@H](Cn2nc(-c3ccccc3)c(-c3ccccc3)c2SCCO)CC1 [Compound 146, 2-(((1s,4s)-4-((5-(2-Hydroxyethylthio)-3,4-diphenyl-1H-pyrazol-1-yl)methyl)cyclohexyl)methoxy)acetic Acid]	–	–	70
CSc1c(-c2ccc(C)s2)c(-c2ccccc2)nn1C[C@H]1CC[C@@H](COCC(=O)O)CC1 [Compound 111, 2-(((1s,4s)-4-((5-(Methylthio)-4-(5-methylthiophen-2-yl)-3-phenyl-1H-pyrazol-1-yl)methyl)cyclohexyl)methoxy)acetic Acid]	–	16	28
CSc1c(-c2cncc(F)c2)c(-c2ccccc2)nn1C[C@H]1CC[C@@H](COCC(=O)O)CC1 [Compound 135, 2-(((1s,4s)-4-((4-(5-Fluoropyridin-3-yl)-5-(methylthio)-3-phenyl-1H-pyrazol-1-yl)methyl)cyclohexyl)methoxy)acetic Acid]	–	–	220
